Assay results reported in ChEMBL document CHEMBL5726327, “Kinase inhibitors” (2017).

Biological target: Glycogen synthase kinase-3 alpha (Homo sapiens, UniProt P49840)
Assay: Enzyme Inhibition Assay: The inhibitory activities of compounds of the invention against the GSK 3α enzyme isoform (Invitrogen), are evaluated by determining the level of activation/phosphorylation of the target peptide. The GSK3-α protein (500 ng/mL, 2.5 μL) is mixed with the test compound (2.5 μL at either 4 μg/mL, 0.4 μg/mL, 0.04 μg/mL, or 0.004 μg/mL) for 2 hr at RT. The FRET peptide (8 μM, 2.5 μL), which is a phosphorylation target for GSK3α, and ATP (40 μM, 2.5 μL) are then added to the enzyme/compound mixture and the resulting mixture incubated for 1 hr. Development reagent (protease, 5 μL) is added for 1 hr prior to detection in a fluorescence microplate reader (Varioskan® Flash, ThermoFisher Scientific).In all cases, the site-specific protease cleaves non-phosphorylated peptide only and eliminates the FRET signal. Phosphorylation levels of each reaction are calculated using the ratio of coumarin emission (donor) over fluorescein emission (acceptor), for which high ratios indicate […] phosphorylation levels.

Glycogen synthase kinase-3 alpha, sequence (P49840 whole entry, canonical isoform): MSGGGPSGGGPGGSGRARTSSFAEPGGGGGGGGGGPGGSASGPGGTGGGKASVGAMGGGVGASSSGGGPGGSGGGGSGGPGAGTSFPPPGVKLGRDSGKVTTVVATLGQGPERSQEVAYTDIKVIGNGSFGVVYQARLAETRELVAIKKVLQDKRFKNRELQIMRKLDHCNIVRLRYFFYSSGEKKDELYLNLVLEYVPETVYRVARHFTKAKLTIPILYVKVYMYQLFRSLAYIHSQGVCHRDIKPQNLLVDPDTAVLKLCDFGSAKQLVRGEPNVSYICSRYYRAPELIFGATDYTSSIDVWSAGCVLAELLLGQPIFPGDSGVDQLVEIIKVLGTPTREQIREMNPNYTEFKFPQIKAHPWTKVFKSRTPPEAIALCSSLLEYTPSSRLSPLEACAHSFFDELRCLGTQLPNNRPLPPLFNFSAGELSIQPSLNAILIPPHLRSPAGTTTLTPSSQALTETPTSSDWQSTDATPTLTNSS

SMILES: COc1cc(Nc2nccc(Oc3ccc(NC(=O)Nc4cc(C(C)(C)C)nn4-c4ccc(C)cc4)c(Cl)c3Cl)n2)cc(S(=O)(=O)C2CC2)c1
- IC50: > 10000 nM

SMILES: COc1cc(N=S(C)(C)=O)cc(Nc2nccc(Oc3ccc(NC(=O)Nc4cc(C(C)C)nn4-c4ccc(C)cc4)c4ccccc34)n2)c1
- IC50: 824 nM
